Calls of active or inactive are those of the source. The rule behind the calls is not given here.

Assay [1] has as its system HeLa S3. Description: Cytotoxicity against human HeLaS3 cells after 96 hrs by MTT assay. Type of assay: functional, cell-based. As to conditions: HeLa S3, 96 h. Background: Tetrazolium dyes change colour on reduction, which living cells bring about.
The species named for assay [2] is Oryctolagus cuniculus. Nature of the assay: Inhibition of rabbit skeletal muscle F-actin polymerization at 3 uM after 1 hr by SDS-PAGE assay.
A short description of assay [3]: Binding affinity to rabbit skeletal muscle actin/porcine brain tubulin preincubated for 30 mins followed by UV irradiation of 0.8 mW for 15 mins measured after 30 mins by TAMRA azide-based fluorescence SDS-PAGE analysis.
The species named for assay [4] is Oryctolagus cuniculus. Nature of the assay: Binding affinity to rabbit skeletal muscle actin preincubated for 30 mins followed by UV irradiation of 0.8 mW for 15 mins measured after 30 mins by TAMRA azide-based fluorescence SDS-PAGE analysis.
The species entered for assay [5] is Oryctolagus cuniculus. Nature of the assay: Binding affinity to rabbit skeletal muscle actin preincubated for 60 mins followed by UV irradiation for 15 mins in presence of aplyronine A by SDS-PAGE analysis.
Assay [6] in a line: Binding affinity to rabbit skeletal muscle actin/pig brain tubulin preincubated for 60 mins followed by UV irradiation for 15 mins in presence of aplyronine A by SDS-PAGE analysis.
For assay [7], the species on record is Sus scrofa. Description: Binding affinity to pig brain tubulin preincubated for 30 mins followed by UV irradiation of 0.8 mW for 15 mins measured after 30 mins by TAMRA azide-based fluorescence SDS-PAGE analysis.

Regarding `COCC(C(=O)O[C@@H]1C/C=C/C=C/C(=O)O[C@H]([C@@H](C)[C@@H](O)[C@@H](C)CC[C@@H](OC(=O)[C@H](C)N(C)C)[C@H](C)[C@H](OC(C)=O)[C@H](C)/C=C/N(C)C=O)C/C=C/[C@H](OC)C[C@H](C)C/C=C(\C)[C@@H](OC)CC[C@@H](C)[C@@H](O)[C@@H]1C)N(C)C` (stereo not given in full), in assay [1], half-maximal inhibition (IC50) required 0.01 nM. In assay [2], the inhibition entry was “Active”. For the same compound, the outcome in assay [3] was inactive.

In the case of `C#CCNC(=O)[C@H](CCCCNC(=O)CON=CC[C@@H](C)[C@@H](OC(C)=O)[C@@H](C)[C@@H](CC[C@H](C)[C@H](O)[C@H](C)[C@@H]1C/C=C/[C@H](OC)C[C@H](C)C/C=C(\C)[C@@H](OC)CC[C@@H](C)[C@@H](O)[C@H](C)[C@H](OC(=O)C(COC)N(C)C)C/C=C/C=C/C(=O)O1)OC(=O)[C@H](C)N(C)C)NC(=O)c1ccc(C2(C(F)(F)F)N=N2)cc1` (stereo not given in full), in assay [1], the IC50 (in general, the midpoint of a concentration-inhibition curve) was 0.76 nM. Moreover, the result in assay [4] was Active.

In assay [1], `COCC(C(=O)O[C@@H]1C/C=C/C=C/C(=O)O[C@H]([C@@H](C)[C@@H](O)[C@@H](C)CC[C@@H](OC(=O)[C@H](C)N(C)C)[C@H](C)[C@H](OC(C)=O)[C@H](C)CC=NOCC(=O)NCCCC[C@H](NC(=O)c2ccc(C3(C(F)(F)F)N=N3)cc2)C(=O)NCCCOCCOCCOCCCNC(=O)CCCC[C@@H]2SC[C@@H]3NC(=O)N[C@@H]32)C/C=C/[C@H](OC)C[C@H](C)C/C=C(\C)[C@@H](OC)CC[C@@H](C)[C@@H](O)[C@@H]1C)N(C)C` (stereo not given in full) gave a half-maximal inhibitory concentration (IC50) of 1.2 nM.

`COCC(C(=O)O[C@@H]1C/C=C/C=C/C(=O)O[C@H]([C@@H](C)[C@@H](O)[C@@H](C)CC[C@@H](OC(=O)[C@H](C)N(C)C)[C@H](C)[C@H](OC(C)=O)[C@H](C)CC=NOCC(=O)NCCCC[C@H](NC(=O)CCC(=O)NCCCOCCOCCOCCCNC(=O)c2ccc(C3(C(F)(F)F)N=N3)cc2)C(=O)NCCCCCCNC(=O)c2ccc(-c3c4ccc(N(C)C)cc4[o+]c4cc(N(C)C)ccc34)c(C(=O)[O-])c2)C/C=C/[C@H](OC)C[C@H](C)C/C=C(\C)[C@@H](OC)CC[C@@H](C)[C@@H](O)[C@@H]1C)N(C)C` (stereo not given in full) displayed an IC50 in assay [1] of 28 nM. The result in assay [5] was Active. Also, in assay [6], the result was inactive.

In assay [1], `COCC(C(=O)O[C@@H]1C/C=C/C=C/C(=O)O[C@H]([C@@H](C)[C@@H](O)[C@@H](C)CC[C@@H](OC(=O)[C@H](C)N(C)C)[C@H](C)[C@H](OC(C)=O)[C@H](C)CC=NOCC(=O)NCCCC[C@H](NC(=O)CCC(=O)NCCCOCCOCCOCCCNC(=O)c2ccc(C3(C(F)(F)F)N=N3)cc2)C(=O)NCCCOCCOCCOCCCNC(=O)CCCC[C@@H]2SC[C@@H]3NC(=O)N[C@@H]32)C/C=C/[C@H](OC)C[C@H](C)C/C=C(\C)[C@@H](OC)CC[C@@H](C)[C@@H](O)[C@@H]1C)N(C)C` (stereo not given in full) yielded an IC50 of 0.54 nM. Besides, the result in assay [3] and in assay [7] was Active.

As to `C#CCNC(=O)[C@H](CCCCNC(=O)CON=CC[C@@H](C)[C@@H](OC(C)=O)[C@@H](C)[C@@H](CC[C@H](C)[C@H](O)[C@H](C)[C@@H]1C/C=C/[C@H](OC)C[C@H](C)C/C=C(\C)[C@@H](OC)CC[C@@H](C)[C@@H](O)[C@H](C)[C@H](OC(=O)C(COC)N(C)C)C/C=C/C=C/C(=O)O1)OC(=O)[C@H](C)N(C)C)NC(=O)CCC(=O)NCCCOCCOCCOCCCNC(=O)c1ccc(C2(C(F)(F)F)N=N2)cc1` (stereo not given in full), 1.2 nM corresponded to half-maximal inhibition in assay [1] (IC50). Moreover, in assay [2], the inhibition result was “Active”. Besides, in assay [4], the outcome was Active. For the same compound, the outcome in assay [3] and in assay [7] was inactive.

Compound `COCC(C(=O)O[C@@H]1C/C=C/C=C/C(=O)O[C@H]([C@@H](C)[C@@H](O)[C@@H](C)CC[C@@H](OC(=O)[C@H](C)N(C)C)[C@H](C)[C@H](OC(C)=O)[C@H](C)CC=NOCC(=O)NCCCC[C@H](NC(=O)c2ccc(C3(C(F)(F)F)N=N3)cc2)C(=O)NCCCCCCNC(=O)c2ccc(-c3c4ccc(N(C)C)cc4[o+]c4cc(N(C)C)ccc34)c(C(=O)[O-])c2)C/C=C/[C@H](OC)C[C@H](C)C/C=C(\C)[C@@H](OC)CC[C@@H](C)[C@@H](O)[C@@H]1C)N(C)C` (stereo not given in full) showed an IC50 in assay [1] of 13 nM. Further, the outcome in assay [5] was Active. Besides, the outcome in assay [6] was inactive.

These data come from ChEMBL document CHEMBL4177613, “Development of photoaffinity derivatives of the antitumor macrolide aplyronine A, a PPI-inducer between actin and tubulin” (Bioorg Med Chem, 2017).
